{"source": "patent US8226943B2", "about": "“Antibodies to notch receptors” (OncoMed Pharmaceuticals, Inc., priority 2008, dated 2012)", "key": {"[1]": {"system": "B51 breast tumors", "assay": "Limiting dilution assay of cancer stem cell frequency, B51 breast tumors", "format": "in vivo, NOD-SCID mice", "conditions": "B51, paclitaxel", "excerpt": "Limiting dilution assays (LDAs) can be used to assess the effect of a Notch-binding agent on solid tumor cancer stem cells and on the tumorigenicity of a tumor comprising the cancer stem cells. The assays can be sued to determine the frequency of cancer stem cells in tumors from animals treated with the Notch-binding agent or other agent and to compare that frequency to the frequency of cancer stem cells in tumors from control animals.\nAn LDA was used to assess the effect on the tumorigenicity of the B51 breast tumors that were treated with the combination of control antibody (1B711) plus paclitaxel (Taxol) or treated with the combination of 59R1 and paclitaxel, as described above in Example 7. In addition, the effect of treatment of B51 breast tumors with the control antibody alone or 59R1 alone was also determined by LDA. The doses of antibodies and paclitaxel and the schedule of dosing for the control antibody group and the 59R1 group were the same as described in Example 7, above for the other two treatment groups. After three doses of antibodies and/or paclitaxel, tumors were harvested, processed and dissociated into single cells. The human tumor cells were isolated from the xenograft tumor cells by incubation with biotinylated mouse antibodies (α-mouse CD45-biotin1:200 dilution and rat α-mouse H2 Kd-biotin1:100 dilution, BioLegend, San Diego, Calif.) on ice for 30 min, followed by addition of streptavidin-labeled magnetic beads and removal of the mouse cells with the aid of a magnet. The human cells in the suspension were harvested and counted.\nA serial titration of cells (30, 90, 270, and 810 cells) from each of the four treatment groups was injected in a 1:1 (v/v) mixture of FACS buffer and Matrigel into a new set of NOD-SCID mice (n=10/group). Tumors were allowed to grow for 72 days. The percentage of mice with detectable tumors was determined in all groups. The cancer stem cell frequency was then calculated using L-Calc™ software (StemCell Technologies Inc.; downloadable from www.stemcell.com/search/default.asp)."}, "[2]": {"system": "PE13 breast tumors", "assay": "Microarray analysis of PE13 breast tumors treated with taxol or 59R1 plus taxol", "format": "in vivo, mice", "conditions": "PE13, Taxol vs. control", "protocol": "In addition to investigating the effects of 59R1 in tumors and the effect on CSC frequency, gene changes were studied following 59R1 treatment in combination with taxol. The experiment was performed in PE13 breast tumors where a decrease in CSC frequency after treatment with 59R1 alone or 59R1 plus taxol treatment had previously been observed (and described herein). Microarray analysis was performed on tumors from the same experiment where limiting dilution analyses of PE13 were carried out for CSC quantification (FIG. 19). Animals bearing PE13 breast tumors were treated three weeks with 59R1 plus taxol, control and taxol prior to harvesting for microarray analysis. Mean differential expression values for taxol vs. control and 59R1 plus taxol vs. taxol treated animals (3 animals per group) were calculated."}}}
{"smiles": "CC(=O)O[C@H]1C(=O)[C@@]2(C)[C@H]([C@H](OC(=O)c3ccccc3)[C@]3(O)C[C@H](OC(=O)[C@H](O)[C@@H](NC(=O)c4ccccc4)c4ccccc4)C(C)=C1C3(C)C)[C@]1(OC(C)=O)CO[C@@H]1C[C@@H]2O", "note": "[Taxol, paclitaxel, reference compound]", "values": [{"measurement": "increase of frequency of cancer stem cells relative to the control", "setting": "[1]", "value": "more than two-fold"}, {"measurement": "Fold BMPR1B", "setting": "[2]", "value": 10.2}, {"measurement": "Fold BNIP3", "setting": "[2]", "value": "−2.1"}, {"measurement": "Fold EGLN3", "setting": "[2]", "value": "−21.1"}, {"measurement": "Fold HSPB6", "setting": "[2]", "value": 13.4}, {"measurement": "Fold ITGAM", "setting": "[2]", "value": 2.2}, {"measurement": "Fold LHX8", "setting": "[2]", "value": 4.6}, {"measurement": "Fold NDRG1", "setting": "[2]", "value": "−9.0"}, {"measurement": "Fold RARRES1", "setting": "[2]", "value": 6.4}, {"measurement": "Fold RARRES3", "setting": "[2]", "value": 2.6}, {"measurement": "Fold RBP2", "setting": "[2]", "value": 4.8}, {"measurement": "Fold XAF1", "setting": "[2]", "value": 10.6}]}
